Patent US10844023B2 (Washington University, priority 2017, dated 2020)

What was measured:
P-gp/MDR1 = P-gp/MDR1 (Homo sapiens, UniProt P08183); experiment: P-gp/MDR1 transport; format: in vitro ADME
[1] = In vivo pharmacokinetics in mice; settings: mouse, 1 mg/kg IM
Description: (A) Three mice each were administered 1 mg/kg agonist IV, IP, or IM. Graphs are mean plasma concentration for each administration route. (B) Results for individual mice were administered 1 mg/kg indicated agonist IM.

[2] = Parallel artificial membrane permeability assay (PAMPA); format: in vitro ADME
Mfn2 null MEFs = experiment: Mitochondrial elongation (aspect ratio) fusogenicity assay; format: cell-based, mouse
[3] = system: MFN2 Asp^378 and Ala^378 mutants; experiment: Mitochondrial fusion with MFN2 Ser378 mutants (Asp378, Ala378); format: cell-based, human
[4] = system: Mfn1/Mfn2 double null MEFs; experiment: Mitochondrial elongation in Mfn1/Mfn2 double null MEFs; format: cell-based, mouse
Source text: A cultured murine embryonic fibroblast assay system was used in which mitochondrial elongation (an increase in aspect ratio) reflects enhanced mitochondrial fusion.

Chain of P-gp/MDR1 (P08183 whole entry): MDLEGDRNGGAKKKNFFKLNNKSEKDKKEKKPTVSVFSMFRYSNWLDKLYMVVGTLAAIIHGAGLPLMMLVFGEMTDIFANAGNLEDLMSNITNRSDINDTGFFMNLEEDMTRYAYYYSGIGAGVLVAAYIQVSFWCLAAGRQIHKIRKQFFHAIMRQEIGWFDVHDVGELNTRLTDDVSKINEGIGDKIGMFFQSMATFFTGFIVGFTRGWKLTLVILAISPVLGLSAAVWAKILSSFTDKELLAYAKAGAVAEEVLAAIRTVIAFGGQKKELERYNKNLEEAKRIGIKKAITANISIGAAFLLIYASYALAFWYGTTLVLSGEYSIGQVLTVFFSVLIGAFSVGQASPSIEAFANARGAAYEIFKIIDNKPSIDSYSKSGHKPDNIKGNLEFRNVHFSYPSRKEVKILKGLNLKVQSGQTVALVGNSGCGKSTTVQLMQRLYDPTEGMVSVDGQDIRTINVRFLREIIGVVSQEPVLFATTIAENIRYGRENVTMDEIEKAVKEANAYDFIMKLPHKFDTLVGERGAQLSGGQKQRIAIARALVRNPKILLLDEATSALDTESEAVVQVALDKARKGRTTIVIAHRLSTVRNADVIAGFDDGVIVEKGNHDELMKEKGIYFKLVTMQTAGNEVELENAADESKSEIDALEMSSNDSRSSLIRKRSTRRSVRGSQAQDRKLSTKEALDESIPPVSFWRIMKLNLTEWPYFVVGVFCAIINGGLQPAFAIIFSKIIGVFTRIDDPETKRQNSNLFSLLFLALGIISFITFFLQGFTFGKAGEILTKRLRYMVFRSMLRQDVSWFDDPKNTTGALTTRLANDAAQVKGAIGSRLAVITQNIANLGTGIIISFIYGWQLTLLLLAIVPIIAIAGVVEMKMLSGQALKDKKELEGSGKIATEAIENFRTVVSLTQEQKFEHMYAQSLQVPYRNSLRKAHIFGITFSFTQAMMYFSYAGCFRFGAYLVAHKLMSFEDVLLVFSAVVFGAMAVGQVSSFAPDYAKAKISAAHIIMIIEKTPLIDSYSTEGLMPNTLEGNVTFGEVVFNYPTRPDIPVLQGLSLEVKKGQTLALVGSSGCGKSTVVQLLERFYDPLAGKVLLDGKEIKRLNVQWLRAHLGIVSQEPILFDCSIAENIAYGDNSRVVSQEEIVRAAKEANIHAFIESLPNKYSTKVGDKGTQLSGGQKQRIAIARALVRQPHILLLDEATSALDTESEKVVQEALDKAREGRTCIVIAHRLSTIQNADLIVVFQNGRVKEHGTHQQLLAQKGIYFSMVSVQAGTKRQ

P-gp mediated transport (P-gp/MDR1)	total plasma drug concentration 2 hours after IM administration [1]	Passive diffusion across lipid-infused artificial membrane (PAMPA, words) [2]	SMILES	EC50 (Mfn2 null MEFs; Mus musculus, increase in mitochondrial aspect ratio) [µM]	Fusogenic activity (Mfn2 null MEFs; mitochondrial elongation / fusion)	Selectivity of fusogenic effect for phosphomimic Asp378 vs nonphosphorylatable Ala378 MFN2 [3]	Mitochondrial elongation in absence of both mitofusins [4]
actively transported by P-gp/MDR1	undetectable	excellent passive diffusion	CC1CCCCC1NC(=O)NCCCc1nnc(C2CC2)n1-c1ccccc1 (stereo not shown) [Regeneurin-C, 1-(3-(5-cyclopropyl-4-phenyl-4H-1,2,4-triazol-3-yl)propyl)-3-(2-methylcyclohexyl)urea]				
			CC1CCCCC1NC(=O)NCCSCc1ccccc1 (stereo not shown) [compound A, 1-[2-(benzylsulfanyl)ethyl]-3-(2-methylcyclohexyl)urea]	0.1 to 0.2	induced mitochondrial elongation	specific for the Asp^378 mutant of MFN2	did not occur in the absence of both of their mitofusin targets
